Test results reported in patent US20110105397A1, “METHOD FOR TREATING HEART FAILURE WITH STRESSCOPIN-LIKE PEPTIDES” (priority 2009, published 2011).
Where two headings read alike, the source gives them in different places.

Columns and labels:
h-CRHR1 = biological target: T1, h-CRHR1 (Homo sapiens, UniProt P34998); settings: h-CRHR1 transfected HEK-293 cells, approximated values from concentration response curves (Hsu et al., 2001); cited from earlier work
T1 sequence (P34998 24-415): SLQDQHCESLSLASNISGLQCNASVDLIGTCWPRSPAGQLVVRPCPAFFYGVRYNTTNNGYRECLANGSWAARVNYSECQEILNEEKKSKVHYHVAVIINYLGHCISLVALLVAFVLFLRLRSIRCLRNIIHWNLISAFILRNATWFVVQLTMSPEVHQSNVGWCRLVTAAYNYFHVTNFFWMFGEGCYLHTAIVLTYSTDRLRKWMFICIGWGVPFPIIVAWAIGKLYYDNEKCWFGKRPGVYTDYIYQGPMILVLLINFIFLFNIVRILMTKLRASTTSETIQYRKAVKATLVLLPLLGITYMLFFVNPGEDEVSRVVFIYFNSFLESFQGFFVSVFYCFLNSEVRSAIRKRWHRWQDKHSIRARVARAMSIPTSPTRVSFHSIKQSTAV

[1] = Human pharmacokinetics, heart failure subjects, 7.5-hour continuous ascending dose IV infusion; settings: in vivo; for Tmax: median
Protocol: In heart failure subjects following a 7.5-hour continuous ascending dose IV infusion of h-SCP (SEQ ID NO:1) noncompartmental pharmacokinetic analyses were performed on plasma concentrations of h-SCP (SEQ ID NO:1). The pharmacokinetics of h-SCP (SEQ ID NO:1) in heart failure subjects appeared to be similar to that of healthy subjects. […] Within 30 minutes, plasma h-SCP (SEQ ID NO:1) was reduced to equal or less than 20% of the h-SCP (SEQ ID NO:1) level at the end of the infusion (FIG. 16B).

[2] = test system: anaesthetized male Sprague-Dawley rats; test: Hemodynamics in anaesthetized rats (IV bolus); format: in vivo, rat; settings: IV bolus 0.13 μg/kg to 44 μg/kg
Protocol: The hemodynamic profile of h-SCP (SEQ ID NO:1) was determined in sodium pentobarbital anaesthetized male Sprague-Dawley rats (FIG. 10). A SPR-320 Mikro-Tip® integrated catheter-tipped micro-manometer (Millar Instruments, Houston, Tex., U.S.A.) was placed in the right femoral artery for blood pressure measurements, and another one directly in the left ventricle for LV pressure measurement. […] The changes in hemodynamic parameters induced by h-SCP (SEQ ID NO:1, full circle in FIG. 10) were blocked by pretreatment with anti-sauvagine-30 (SEQ ID NO:118, open circle in FIG. 10).

[3] = test system: isolated rat aortic rings; test: Vascular smooth muscle relaxation, isolated rat aortic rings pre-contracted with phenylephrine
Source text: The ability of h-SCP (SEQ ID NO:1) to relax vascular smooth muscle was examined in isolated, rat aortic rings pre-contracted with phenylephrine (PE) (FIG. 8). […] The responses caused by h-SCP (SEQ ID NO:1) were inhibited by anti-sauvagine-30 (SEQ ID NO:118).

[4] = Nonclinical pharmacokinetics in dogs; parameters: species or system dog; settings: in vivo; for Cmax: read-out: Cmax
Protocol: A sandwich immunoassay was developed using an affinity purified goat polyclonal antibody, specific to h-SCP that was pre-coated onto a microplate with integrated electrodes. h-SCP molecules present in the sample will bind to the capture polyclonal antibody coated on the plate. After washing away any unbound substances, a sulfo-tagged mouse monoclonal anti-h-SCP antibody was added. This conjugated antibody will bind to the h-SCP molecules captured on the microplate and the quantity of analyte was determined by electrochemiluminescence. The amount of signal generated is directly proportional to the h-SCP concentration in the sample or standard. The standard curve range is 3.125-1600 pg/mL with a quantifiable range from 10-800 pg/mL. A sample volume of 25 μL (in duplicate) is required for this assay. This immunoassay is specific for human and dog stresscopin and human urocortin III (h-UCN3). […] After completion of the analysis, based on a comparison of reference standards between the ELISA and HPLC method, a correction factor of 1.57 was applied to all bioanalytical data.
The nonclinical pharmacokinetics of h-SCP (SEQ ID NO:1) and pegylated stresscopin-like peptides were studied in rats, dogs, and cynomolgus monkeys (cyno). Nonclinical pharmacokinetic studies focused on characterization of IV infusion at pharmacologically relevant dose levels, supplemented with IV and SC bolus and toxicokinetic analysis.

healthy subjects = test: Human hemodynamics, healthy subjects, 24- and 72-hour continuous IV infusion, 54 ng/kg/min; format: in vivo
Protocol: Efficacy was based on the pharmacodynamic evaluation of hemodynamics, which was monitored using the noninvasive technique of impedance cardiography. Heart rate values were collected by impedance cardiography measurements. It was noted that the heart rate of subjects receiving placebo were elevated on the day of their infusions, at baseline before the infusion, and for the first 3 to 4 hours after the infusions were started (FIG. 17). Based on this observation, it appeared that there was a potential effect of period on the observed heart rate.
Healthy subjects who received placebo had heart rates that decreased compared with baseline during the infusion.

[5] = infusion rate 1/3/9 ng/kg/min, mean, N = 2
[6] = infusion rate 3/9/18 ng/kg/min, mean, N = 2
[7] = infusion rate 3/18/54 ng/kg/min, mean, N = 2
[8] = male, dog IV infusion 3 hours, M, 3.33 ng/kg/min
[9] = male, dog IV infusion 3 hours, M, 8.33 ng/kg/min
[10] = male, dog IV infusion 3 hours, M, 16.7 ng/kg/min
[11] = male, dog IV infusion 3 hours, M, 33.3 ng/kg/min

In the case of “H-HPGSRIVLSLDVPIGLLQILLEQARARAAREQATTNARILARV-NH2 [SEQ ID NO: 117, HPGSRIVLSLDVPIGLLQILLEQARARAAREQATTNARILARV-NH2, reference compound]”, the “Published pA50” value (h-CRHR1) is listed as >7^3.
Work on “H-TKFTLSLDVPTNIMNLLFNIAKAKNLRAQAAANAHLMAQI-NH2 [SEQ ID NO: 1, TKFTLSLDVPTNIMNLLFNIAKAKNLRAQAAANAHLMAQI-NH2]” yielded an AUC(0-inf) ([1]; infusion rate 0.3/1/3 ng/kg/min, N = 1) of 3.4 ng·h/mL, a clearance ([1]; infusion rate 0.3/1/3 ng/kg/min, N = 1, read-out: CL (converted)) of 3.17 mL/min/kg and a Cmax ([1]; infusion rate 0.3/1/3 ng/kg/min, mean, N = 2) of 0.826 ng/mL. For the same substance, the Tmax ([1]; infusion rate 0.3/1/3 ng/kg/min, N = 2) was 6.25 h, the AUC(0-inf) [1, 5] was 6.72 ng·h/mL and the Cmax [1, 5] was 1.98 ng/mL. It also gave a clearance ([1]; infusion rate 1/3/9 ng/kg/min, mean, N = 2, read-out: CL (converted)) of 5.33 mL/min/kg, a Tmax ([1]; infusion rate 1/3/9 ng/kg/min, N = 2) of 7.04 h and an AUC(0-inf) [1, 6] of 19 ng·h/mL. It also gave a Cmax [1, 6] of 4.77 ng/mL, a clearance ([1]; infusion rate 3/9/18 ng/kg/min, mean, N = 2, read-out: CL (converted)) of 4 mL/min/kg and a Tmax ([1]; infusion rate 3/9/18 ng/kg/min, N = 2) of 6.75 h. The AUC(0-inf) [1, 7] was 24.9 ng·h/mL, the Cmax [1, 7] was 6.41 ng/mL and the clearance ([1]; infusion rate 3/18/54 ng/kg/min, mean, N = 2, read-out: CL (converted)) was 7.67 mL/min/kg. The Tmax ([1]; infusion rate 3/18/54 ng/kg/min, N = 2) was 6.04 h, the AUC(0-inf) ([1]; infusion rate 9/18/36 ng/kg/min, mean, N = 2) was 33.8 ng·h/mL and the clearance ([1]; infusion rate 9/18/36 ng/kg/min, mean, N = 2, read-out: CL (converted)) was 5.5 mL/min/kg. The half-life ([1]; infusion rate 9/18/36 ng/kg/min, mean, N = 2, read-out: T1/2, effective (converted)) was 3.95 h, the Cmax ([1]; infusion rate 9/18/36 ng/kg/min, mean, N = 3) was 5.52 ng/mL and the Tmax ([1]; infusion rate 9/18/36 ng/kg/min, N = 3) was 7.48 h. The AUC(0-inf) ([1]; infusion rate 18/36/45 ng/kg/min, N = 1) was 51.5 ng·h/mL, the clearance ([1]; infusion rate 18/36/45 ng/kg/min, N = 1, read-out: CL (converted)) was 4.83 mL/min/kg and the Cmax ([1]; infusion rate 18/36/45 ng/kg/min, mean, N = 2) was 8.04 ng/mL. For the same substance, the Tmax ([1]; infusion rate 18/36/45 ng/kg/min, N = 2) was 7.34 h, the clearance ([1]; read-out: Mean systemic clearance) was 3.17 to 7.67 mL/min/kg and the half-life ([1]; read-out: Mean terminal half-life) was 0.24 to 7.04 h. For the same substance, the half-life ([1]; read-out: effective half-life) was 1.32 to 2.51 h, the hemodynamic profile [2] was “dose-dependent increases in heart rate, LV developed pressure (+dP/dt), and a corresponding decrease in blood pressure” and the “fold less potent than h-UCN2” value [3] was 10 fold. For the same substance, the pA50 of relaxation ([3]; rat aortic rings pre-contracted with phenylephrine) was 6.05±0.12, the half-life ([4]; dog, dogs, two-compartment analysis, read-out: alpha-phase half-life (t1/2 alpha)) was 0.167 to 0.333 h and the half-life ([4]; dog, dogs, read-out: terminal phase half-life (converted)) was about 1 h. For the same substance, the “time to apparent steady-state plasma concentration after initiation of infusion” value ([4]; dog, iv) was at most 1 h, the clearance ([4]; dog, dogs, 3.3 to 33.3 ng/kg/min, read-out: plasma clearance) was about 4 mL/min/kg and the half-life ([4]; male, dog, iv, 33.3 ng/kg/min, dog IV infusion 3 hours, M, 33.3 ng/kg/min, read-out: t1/2 alpha) was 0.228 h. The half-life ([4]; male, dog, iv, 33.3 ng/kg/min, dog IV infusion 3 hours, M, 33.3 ng/kg/min, read-out: t1/2 terminal) was 1.09 h, the Vd ([4]; male, dog, iv, Vss) was 0.216 L/kg and the half-life ([4]; male, dog, iv, t1/2 alpha) was 0.265 h. For the same substance, the half-life ([4]; male, dog, iv, t1/2 terminal) was 0.993 h, the AUC(0-inf) [4, 8] was 2.34 ng·h/mL and the clearance ([4]; male, dog IV infusion 3 hours, M, 3.33 ng/kg/min, read-out: CL) was 4.28 mL/min/kg. It also gave a Cmax [4, 8] of 0.814 ng/mL, an AUC(0-inf) [4, 9] of 6.46 ng·h/mL and a clearance ([4]; male, dog IV infusion 3 hours, M, 8.33 ng/kg/min, read-out: CL) of 3.87 mL/min/kg. For the same substance, the Cmax [4, 9] was 2.38 ng/mL, the AUC(0-inf) [4, 10] was 12.8 ng·h/mL and the clearance ([4]; male, dog IV infusion 3 hours, M, 16.7 ng/kg/min, read-out: CL) was 3.99 mL/min/kg. The Cmax [4, 10] was 5.05 ng/mL, the AUC(0-inf) [4, 11] was 26.4 ng·h/mL and the clearance ([4]; male, dog IV infusion 3 hours, M, 33.3 ng/kg/min, read-out: CL) was 3.95 mL/min/kg. The Cmax [4, 11] was 10 ng/mL, the Vd ([4]; male, dog IV infusion 3 hours, M, 33.3 ng/kg/min, read-out: Vss) was 0.161 L/kg and the “time in which the increase in heart rate occurred” value (healthy subjects) was at most 15 min.
